According to patent US20210299101A1, “SYSTEMS, METHODS, AND KITS FOR DIAGNOSTICS AND TREATMENT OF VIRAL RESPIRATORY INFECTION” (priority 2020, published 2021):

Tests used:
SARS-CoV-2 [1] = assay: Example 21: double-blinded placebo controlled study in hospitalized male SARS-CoV-2 patients, survival at day 14; assay type: in vivo, human; conditions: following 14 days of treatment; 80 mg qd; 15 hospitalized male patients, score 4-6 on 8 point COVID-19 ordinal scale (control group 55%)
Procedure: The primary outcome was survival at day 14.
15 subjects were assigned to HC-1119 treatment 80 mg qd. The other 15 subjects received standard treatment+HC-1119 placebo.

SARS-CoV-2 [2] = assay: Example 22: double-blinded placebo controlled study in hospitalized female SARS-CoV-2 patients, survival; assay type: in vivo, human; conditions: following 14 days of treatment; 80 mg qd; 15 hospitalized female patients, score 4-6 on 8 point COVID-19 ordinal scale (control group 67%)
Procedure: The patients were taking birth control and agreed not to engage in unprotected sex for at least 90 days post last dosing. None of the women were lactating.
15 subjects were assigned to HC-1119 treatment 80 mg qd. The other 13 subjects received standard treatment+HC-1119 placebo.

SARS-CoV-2 [3] = assay: Example 23: open label study in hospitalized male and female SARS-CoV-2 patients, survival; assay type: in vivo, human; conditions: average of 28 days of treatment; 80 mg qd; 31 hospitalized male and female patients, score 6 on 8 point COVID-19 ordinal scale (subjects not in study 3%)
SARS-CoV-2 [4] = assay: Example 24: double-blinded placebo controlled study in COVID-19 outpatients, rate of hospitalization at day 14; assay type: in vivo, human; conditions: following 14 days of treatment; 80 mg qd; 28 male and female outpatients, score 1-2 on 8 point COVID-19 ordinal scale (control group 20%)
Procedure: The primary outcome was the rate of hospitalization at day 14.
28 subjects were assigned to HC-1119 treatment 80 mg qd. The other 28 subjects received standard treatment+HC-1119 placebo. Following 14 days of treatment, 1% of the subjects in the HC-1119 were hospitalized compared to 20% of the subjects in the control group were hospitalzied.

SARS-CoV-2 [5] = assay: Example 2: double-blinded placebo controlled prophylaxis study in health care workers, SARS-CoV-2 test at day 28; conditions: 10 mg/Kg/day oral, of 50 male and female health care workers negative at baseline (placebo 9 of 47)
Procedure: Example 2: A double-blinded placebo controlled study was conducted on 97 male and female health care workers working at two hospital emergency room departments.
At baseline, all subjects were tested negative for SARS-CoV-2 infection. […] The reminder 47 subjects were given a placebo oral pill. At day 28 all subjects were tested for SARS-CoV-2 infection.

SARS-CoV-2 [6] = assay: Example 7: double-blinded placebo controlled study in hospitalized male SARS-CoV-2 patients, survival; assay type: in vivo, human; conditions: following 15 days of treatment; injection 300 mg; 60 hospitalized male patients (control group 64%)
Procedure: 60 subjects were given an injection of cyproterone acetate (300 mg). The other 53 subjects received standard treatment. Following 15 days of treatment, 84% of the subjects in the cyproterone acetate survived while 64% of the control group survived.

SARS-CoV-2 [7] = assay type: in vivo; conditions: 1 admitted patient (standard care average 3.6)
[8] = system: fetal pulmonary surfactant production; conditions: rabbits, males and females; cited from earlier work
SARS-CoV-2 [9] = assay: Example 5: double-blinded placebo controlled prophylaxis study in male health care workers, SARS-CoV-2 test at day 28; assay type: in vivo, human; conditions: 0.25 mg/day oral
SARS-CoV-2 [10] = assay: Example 4: double-blinded placebo controlled study in hospitalized male SARS-CoV-2 patients, survival; assay type: in vivo, human; conditions: following 15 days of treatment; 160 mg qd; 15 hospitalized male patients (control group 7%)
Procedure: 15 subjects were assigned to enzalutamide treatment 160 mg qd. The other 15 subjects received standard treatment. Following 15 days of treatment, 20% of the subjects in the enzalutamide survived while 7% of the control group survived.

SARS-CoV-2 [11] = assay: Example 3: double-blinded placebo controlled prophylaxis study in male health care workers, SARS-CoV-2 test at day 28; assay type: in vivo, human; conditions: 750 mg/day oral, of 18 male health care workers negative at baseline (placebo 3 of 10)
SARS-CoV-2 [12] = assay type: in vivo, human; conditions: 3 admitted patients (standard care 4.0)
Procedure: Example 19: A controlled study was conducted on 90 male patients with average age of 51 years old. […] The treatment arm was prescribed nilutamide (300 mg) orally once daily at the start of the trial, the control arm received standard care.
The patients BCRSS score was 1.3.

furin = conditions: human hepatoma cell lines (Chen et al. 2008); cited from earlier work

[2H]C([2H])([2H])NC(=O)c1ccc(N2C(=S)N(c3ccc(C#N)c(C(F)(F)F)c3)C(=O)C2(C)C)cc1F [HC-1119]
subjects survived (SARS-CoV-2 [1]): 96.3%
subjects survived (SARS-CoV-2 [2]): 91.8%
subjects survived (SARS-CoV-2 [3]): 72%
subjects hospitalized (SARS-CoV-2 [4]): 1%

C=C(C)[C@@H]1CCC(C)=C[C@H]1c1c(O)cc(CCCCC)cc1O [cannabidiol]
subjects tested positive for SARS-CoV-2 (SARS-CoV-2 [5]): 2 subjects

CC(=O)O[C@]1(C(C)=O)CC[C@H]2[C@@H]3C=C(Cl)C4=CC(=O)[C@@H]5C[C@@H]5[C@]4(C)[C@H]3CC[C@@]21C [cyproterone acetate]
subjects survived (SARS-CoV-2 [6]): 84%

CC(O)c1cc(C(=O)N[C@@H](C)Cn2ccc(-c3ccc(C#N)c(Cl)c3)n2)[nH]n1 (some centres unmarked) [darolutamide]
BCRSS score of the admitted patient (SARS-CoV-2 [7]): 2

C[C@]12CCC(=O)C[C@@H]1CC[C@@H]1[C@@H]2CC[C@]2(C)[C@@H](O)CC[C@@H]12 [dihydrotestosterone]
effect on fetal pulmonary surfactant production [8]: inhibit fetal pulmonary surfactant production

C[C@]12C=CC(=O)N[C@@H]1CC[C@@H]1[C@@H]2CC[C@]2(C)[C@@H](C(=O)Nc3cc(C(F)(F)F)ccc3C(F)(F)F)CC[C@@H]12 [dutasteride]
subjects tested positive for SARS-CoV-2 (percent) (SARS-CoV-2 [9]; 68 male health care workers (placebo 17%)): 4.4%
subjects tested positive for SARS-CoV-2 (number) (SARS-CoV-2 [9]; of 68 male health care workers negative at baseline (placebo 9 of 53)): 3 subject

CNC(=O)c1ccc(N2C(=S)N(c3ccc(C#N)c(C(F)(F)F)c3)C(=O)C2(C)C)cc1F [enzalutamide]
subjects survived (SARS-CoV-2 [10]): 20%

CC(C)C(=O)Nc1ccc([N+](=O)[O-])c(C(F)(F)F)c1 [flutamide]
subjects tested positive for SARS-CoV-2 (SARS-CoV-2 [11]): 1 subject

CC1(C)NC(=O)N(c2ccc([N+](=O)[O-])c(C(F)(F)F)c2)C1=O [nilutamide]
BCRSS score of admitted patients (SARS-CoV-2 [12]): 1.3

N[C@@H](Cc1cc(I)c(Oc2ccc(O)c(I)c2)c(I)c1)C(=O)O [thyroid hormone T3]
furin expression (furin): up-regulated
